Source: patent US11891359B2, “Prenylated psilocybin derivatives and methods of using” (ENVERIC B[…] INC., priority 2021, dated 2024)

Assay: Solubility in the one-pot biocatalysis reaction mixture
Format: physicochemical
Conditions: undiluted one-pot biocatalysis reaction mixture (5 mL), 30 °C, aqueous buffer; undiluted 5 mL reaction (25 mM Tris-HCl pH 8.0); dilution to 40 mL and pH 6 increased solubility
Method: Referring further to FIG. 13A, Step 1 was conducted in vitro using biocatalytic conversion. Three recombinant enzymes, the prenyl transferase PriB (SEQ.ID NO: 24), in addition to PhoNxt (SEQ.ID NO: 30), and IPKmt (SEQ.ID NO: 32) were individually expressed in E. coli using the following plasmids, respectively: pET26b(+)-PriB, pET28a(+)-IPKmt, and pET21(+)-PhoNxt. Prenyl transferase PriB (SEQ.ID NO: 24) catalyzes the stereospecific 6-prenylation of tryptophan with dimethylallyl pyrophosphate (DMAPP) as the prenyl-donor. A cDNA encoding PriB enzyme (SEQ.ID NO: 23) was synthesized and cloned into pET26b(+) vector by service provider GenScript (www.genscript.com) in-frame with a vector-encoded, N-terminal HIS epitope tag. PhoNxt (SEQ.ID NO: 30) is a non-specific acid phosphatase, while IPKmt (SEQ.ID NO: 32) is an isopentenyl phosphate kinase. Together, these two enzymes can use dimethylallyl alcohol (DMAOH) (www.sigmaaldrich.com) as the starting substrate to produce DMAPP, which in turn is a required co-substrate for PriB. cDNAs encoding IPkmt (SEQ.ID NO: 31) and PhoNxt (SEQ.ID NO: 29) were synthesized and cloned into E.coli expression vectors pET28a(+) and pET21(+), respectively using the Clonal Genes service of Twist Bioscience. Specifically, IPKmt was cloned between the NdeI and XhoI sites of pET28a(+) thus enabling an in-frame, N-terminal HIS tag in the corresponding protein. […]

Work on CC(C)=CCc1ccc2c(C[C@H](N)C(=O)O)c[nH]c2c1 [6-dimethylallyl-tryptophan] yielded a solubility of less than 1100 µg/mL.
